Literature values as cited in US12691140B2, “Therapeutic carbon monoxide formulations” (THE BRIGHAM AND WOMEN'S HOSPITAL, INC., priority 2020, dated 2026).

Conditions: dogs, abdominal insufflation to COHb levels comparable to inhalation

Q: For `[C-]#[O+]` [CO, Carbon monoxide], which toxicity is on record?
A: no toxicity
